Results from US11124494B2, “Aryl heterocyclic piperidinone formyl peptide 2 receptor and formyl peptide 1 receptor agonists” (Bristol-Myers Squibb Company, priority 2017, dated 2021).

Target: human FPR2 receptors (Homo sapiens (Human), UniProt P25090)
Assay: FPR2 cyclic adenosine monophosphate (cAMP) assay
Format: cell-based
Settings: hFPR2 Assay, CHO cells overexpressing human FPR2; potency bins; read-out: hFPR2 agonist activity EC50 values
Description: FPR2 and FPR1 Cyclic Adenosine Monophosphate (cAMP) Assays. A mixture of forskolin (5 μM final for FPR2 or 10 μM final for FPR1) and IBMX (200 μM final) were added to 384-well Proxiplates (Perkin-Elmer) pre-dotted with test compounds in DMSO (1% final) at final concentrations in the range of 1.7 nM to 100 μM. Chinese Hamster Ovary cells (CHO) overexpressing human FPR1 or human FPR2 receptors were cultured in F-12 (Ham's) medium supplemented with 10% qualified FBS, 250 μg/ml zeocin and 300 μg/ml hygromycin (Life Technologies). Reactions were initiated by adding 2,000 human FPR2 cells per well or 4,000 human FPR1 cells per well in Dulbecco's PBS (with calcium and magnesium) (Life Technologies) supplemented with 0.1% BSA (Perkin-Elmer). The reaction mixtures were incubated for 30 min at room temperature. The level of intracellular cAMP was determined using the HTRF HiRange cAMP assay reagent kit (Cisbio) according to manufacturer's instruction. Solutions of cryptate conjugated anti-cAMP and d2 flurorophore-labelled cAMP were made in a supplied lysis buffer separately. Upon completion of the reaction, the cells were lysed with equal volume of the d2-cAMP solution and anti-cAMP solution. After a 1-h room temperature incubation, time-resolved fluorescence intensity was measured using the Envision (Perkin-Elmer) at 400 nm excitation and dual emission at 590 nm and 665 nm. A calibration curve was constructed with an external cAMP standard at concentrations ranging from 1 μM to 0.1 pM by plotting the fluorescent intensity ratio from 665 nm emission to the intensity from the 590 nm emission against cAMP concentrations. The potency and activity of a compound to inhibit cAMP production was then determined by fitting to a 4-parametric logistic equation from a plot of cAMP level versus compound concentrations.

Sequence of human FPR2 receptors (P25090 whole entry): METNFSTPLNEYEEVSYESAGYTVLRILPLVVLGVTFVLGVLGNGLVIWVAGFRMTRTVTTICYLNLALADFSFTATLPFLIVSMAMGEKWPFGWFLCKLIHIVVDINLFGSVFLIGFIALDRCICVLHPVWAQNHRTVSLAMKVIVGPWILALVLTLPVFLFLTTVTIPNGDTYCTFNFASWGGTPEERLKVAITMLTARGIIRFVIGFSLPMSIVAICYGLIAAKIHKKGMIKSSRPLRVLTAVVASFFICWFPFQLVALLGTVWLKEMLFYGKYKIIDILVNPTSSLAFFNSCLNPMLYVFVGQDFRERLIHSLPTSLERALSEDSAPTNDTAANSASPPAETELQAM

First: CS(=O)(=O)NCC1(c2ccc(N3CCC[C@@H](NC(=O)Nc4ccc(C(F)(F)F)nc4)C3=O)cc2)CCC1 [Example 1, (R)—N-((1-(4-(2-Oxo-3-(3-(6-(trifluoromethyl)pyridin-3-yl)ureido)piperidin-1-yl)phenyl)cyclobutyl)methyl)methanesulfonamide]
Second: CS(=O)(=O)NCC1(c2ccc(N3CCC[C@H](NC(=O)Nc4ccc(C(F)(F)F)nc4)C3=O)cc2)CCC1 [Example 30]
The EC50 of the first is lower: no more than 10 nM for the first, 100 to 1250 nM for the second.

CS(=O)(=O)NCC1(c2ccc(N3CCC[C@@H](NC(=O)Nc4ncc(C(F)(F)F)cc4F)C3=O)cc2F)CC1 [Example 17] and CS(=O)(=O)NCC1(c2ccc(N3CCC[C@@H](NC(=O)Nc4ncc(Cl)cc4F)C3=O)cc2F)CC1 [Example 20] cannot be ordered by EC50: 10 to 100 nM for the first, no more than 10 nM for the second.

First: O=C(Nc1ccc(C(F)(F)F)cn1)N[C@@H]1CCCN(c2ccc(C3(CN4CCOCC4)CCCC3)cc2)C1=O [Example 65, (R)-1-(1-(4-(1-(morpholinomethyl)cyclopentyl)phenyl)-2-oxopiperidin-3-yl)-3-(5-(trifluoromethyl)pyridin-2-yl)urea]
Second: O=C(Nc1ccc(C(F)(F)F)cn1)N[C@@H]1CCCN(c2ccc(C3(CN4CCOCC4)CCC3)cc2)C1=O [Example 63, (R)-1-(1-(4-(1-(morpholinomethyl)cyclobutyl)phenyl)-2-oxopiperidin-3-yl)-3-(5-(trifluoromethyl)pyridin-2-yl)urea]
The EC50 of the first is higher: 100 to 1250 nM for the first, 10 to 100 nM for the second. The second is the more potent here.

Compared with N#CC1(c2ccc(N3CCC[C@@H](NC(=O)Nc4ccc(C(F)(F)F)cc4)C3=O)cc2)CC1 [Example 49], N#CC1(c2ccc(N3CCC[C@H](NC(=O)Nc4ccc(C(F)(F)F)cc4)C3=O)cc2)CC1 [Example 48] is higher in EC50: no more than 10 nM for the first, 100 to 1250 nM for the second. The first is the more potent here.

CS(=O)(=O)NCC1(c2ccc(N3C[C@H](O)C[C@@H](NC(=O)Nc4ncc(C(F)(F)F)cc4F)C3=O)cc2)CC1 [Example 68, N-((1-(4-((3R,5R)-3-(3-(3-Fluoro-5-(trifluoromethyl)pyridin-2-yl)ureido)-5-hydroxy-2-oxopiperidin-1-yl)phenyl)cyclopropyl)methyl)methanesulfonamide] and CS(=O)(=O)NCC1(c2ccc(N3C[C@H](O)C[C@@H](NC(=O)Nc4ncc(Cl)cc4F)C3=O)cc2)CC1 [Example 70] fall in the same range of EC50: 10 to 100 nM for the first, 10 to 100 nM for the second.

CS(=O)(=O)NCC1(c2ccc(N3CCC[C@@H](NC(=O)Nc4ccc(C(F)(F)F)cn4)C3=O)cc2F)CC1 [Example 26] and CS(=O)(=O)NCC1(c2ccc(N3CCC[C@@H](NC(=O)Nc4ccc(C(F)(F)F)nc4)C3=O)cc2F)CC1 [Example 2] cannot be ordered by EC50: 10 to 100 nM for the first, no more than 10 nM for the second.

CS(=O)(=O)NCC1(c2ccc(N3CCC[C@@H](NC(=O)Nc4ccc(OC(F)F)nc4)C3=O)cc2F)CC1 [Example 21] and CS(=O)(=O)NCC1(c2ccc(N3CCC[C@@H](NC(=O)Nc4ccc(OC(F)F)nc4)C3=O)cc2)CC1 [Example 36] cannot be ordered by EC50: 10 to 100 nM for the first, no more than 10 nM for the second.

CS(=O)(=O)NCC1(c2ccc(N3CCC[C@@H](NC(=O)Nc4ncc(C(F)(F)F)cc4F)C3=O)cc2)CC1 [Example 40] and CS(=O)(=O)NCC1(c2ccc(N3CCC[C@@H](NC(=O)Nc4ncc(C(F)(F)F)cc4F)C3=O)cc2)CCC1 [Example 14] cannot be ordered by EC50: 10 to 100 nM for the first, no more than 10 nM for the second.

CN(C)CC1(c2ccc(N3CCC[C@@H](NC(=O)Nc4ccc(C(F)(F)F)nc4)C3=O)cc2)CC1 [Example 67, (R)-1-(1-(4-(1-((dimethylamino)methyl)cyclopropyl)phenyl)-2-oxopiperidin-3-yl)-3-(6-(trifluoromethyl)pyridin-3-yl)urea] and O=C(Nc1ccc(C(F)(F)F)nc1)N[C@@H]1CCCN(c2ccc(C3(CO)CC3)cc2)C1=O [Example 3] fall in the same range of EC50: 100 to 1250 nM for the first, 100 to 1250 nM for the second.

COc1cnc(NC(=O)N[C@@H]2CCCN(c3ccc(C4(CNS(C)(=O)=O)CC4)cc3)C2=O)cn1 [Example 9] and COc1cnc(NC(=O)N[C@@H]2CCCN(c3ccc(C4(CNS(C)(=O)=O)CCC4)cc3)C2=O)cn1 [Example 7] cannot be ordered by EC50: no more than 10 nM for the first, no more than 10 nM for the second.

O=C(Nc1ccc(C(F)(F)F)cn1)N[C@@H]1CCCN(c2ccc(C3(CN4CCCC4)CCC3)cc2)C1=O [Example 59, (R)-1-(2-oxo-1-(4-(1-(pyrrolidin-1-ylmethyl)cyclobutyl)phenyl)piperidin-3-yl)-3-(5-(trifluoromethyl)pyridin-2-yl)urea] and O=C(Nc1ccc(C(F)(F)F)nc1)N[C@@H]1CCCN(c2ccc(C3(CN4CCCC4)CCC3)cc2)C1=O [Example 56, (R)-1-(2-oxo-1-(4-(1-(pyrrolidin-1-ylmethyl)cyclobutyl)phenyl)piperidin-3-yl)-3-(6-(trifluoromethyl)pyridin-3-yl)urea] fall in the same range of EC50: 100 to 1250 nM for the first, 100 to 1250 nM for the second.

Compared with O=C(Nc1ccc(C(F)(F)F)nc1)N[C@@H]1CCCN(c2ccc(C3(CN4CCOCC4)CCCC3)cc2)C1=O [Example 61, (R)-1-(1-(4-(1-(morpholinomethyl)cyclopentyl)phenyl)-2-oxopiperidin-3-yl)-3-(6-(trifluoromethyl)pyridin-3-yl)urea], O=C(Nc1ccc(C(F)(F)F)nc1)N[C@@H]1CCCN(c2ccc(C3(CN4CCOCC4)CC3)cc2)C1=O [Example 64, (R)-1-(1-(4-(1-(morpholinomethyl)cyclopropyl)phenyl)-2-oxopiperidin-3-yl)-3-(6-(trifluoromethyl)pyridin-3-yl)urea] is lower in EC50: 100 to 1250 nM for the first, 10 to 100 nM for the second.

COc1cnc(NC(=O)N[C@@H]2CCCN(c3ccc(C4(CNS(C)(=O)=O)CC4)c(F)c3)C2=O)cn1 [Example 5] and CS(=O)(=O)NCC1(c2ccc(N3CCC[C@@H](NC(=O)Nc4cnc(Cl)cn4)C3=O)cc2F)CC1 [Example 19] cannot be ordered by EC50: no more than 10 nM for the first, no more than 10 nM for the second.

CS(=O)(=O)NCC1(c2ccc(N3CCC[C@H](NC(=O)Nc4ccc(C(F)(F)F)nc4)C3=O)cc2)CCCC1 [Example 32] and CS(=O)(=O)NCC1(c2ccc(N3CCC[C@H](NC(=O)Nc4ccc(C(F)(F)F)nc4)C3=O)cc2)CC1 [Example 45] fall in the same range of EC50: 100 to 1250 nM for the first, 100 to 1250 nM for the second.

CS(=O)(=O)NCC1(c2ccc(N3CCC[C@@H](NC(=O)Nc4ccc(Cl)cn4)C3=O)cc2)CC1 [Example 23] and COc1ccc(NC(=O)N[C@@H]2CCCN(c3ccc(C4(CNS(C)(=O)=O)CC4)cc3)C2=O)nc1 [Example 24] cannot be ordered by EC50: no more than 10 nM for the first, no more than 10 nM for the second.

O=C(Nc1ccc(Cl)cc1)N[C@@H]1CCCN(c2ccc(C3CCOCC3)cc2)C1=O [Example 50] and CS(=O)(=O)NCC1(c2ccc(N3CCC[C@H](NC(=O)Nc4ccc(C(F)(F)F)cc4)C3=O)cc2)CC1 [Example 43] cannot be ordered by EC50: no more than 10 nM for the first, 10 to 100 nM for the second.

COc1cnc(NC(=O)N[C@@H]2CCCN(c3ccc(C4(CNS(C)(=O)=O)CC4)cc3)C2=O)c(F)c1 [Example 34] and CS(=O)(=O)NCC1(c2ccc(N3CCC[C@@H](NC(=O)Nc4ncc(Cl)cc4F)C3=O)cc2)CC1 [Example 39] cannot be ordered by EC50: 10 to 100 nM for the first, no more than 10 nM for the second.

CS(=O)(=O)NCC1(c2ccc(N3CCC[C@@H](NC(=O)Nc4ccc(C(F)(F)F)cn4)C3=O)cc2)CCCC1 [Example 29] and CS(=O)(=O)NCC1(c2ccc(N3CCC[C@@H](NC(=O)Nc4ccc(C(F)(F)F)cn4)C3=O)cc2)CCC1 [Example 28] cannot be ordered by EC50: 10 to 100 nM for the first, no more than 10 nM for the second.

First: CS(=O)(=O)NCC1(c2ccc(N3CCC[C@@H](NC(=O)Nc4ncc(Cl)cc4Cl)C3=O)cc2)CCC1 [Example 13]
Second: CS(=O)(=O)NCC1(c2ccc(N3CCC[C@@H](NC(=O)Nc4ncc(Cl)cc4Cl)C3=O)cc2)CC1 [Example 35]
The EC50 of the first is lower: 10 to 100 nM for the first, 100 to 1250 nM for the second. The first is the more potent here.

First: CS(=O)(=O)NCC1(c2ccc(N3CCC[C@@H](NC(=O)Nc4ncc(Cl)cc4Cl)C3=O)cc2F)CC1 [Example 22]
Second: CS(=O)(=O)NCC1(c2ccc(N3CCC[C@H](NC(=O)Nc4ccc(C(F)(F)F)cc4)C3=O)cc2F)CC1 [Example 15]
The EC50 of the first is higher: 100 to 1250 nM for the first, 10 to 100 nM for the second. The second is the more potent here.

Cc1cnc(NC(=O)N[C@@H]2CCCN(c3ccc(C4(CNS(C)(=O)=O)CCC4)cc3)C2=O)cn1 [Example 8] and CS(=O)(=O)NCC1(c2ccc(N3CCC[C@H](NC(=O)Nc4cnc(Cl)cn4)C3=O)cc2)CCC1 [Example 12] cannot be ordered by EC50: no more than 10 nM for the first, no more than 10 nM for the second.

First: O=C(Nc1ccc(C(F)(F)F)nc1)N[C@@H]1CCCN(c2ccc(C3(CN4CCCC4)CC3)cc2)C1=O [Example 66, (R)-1-(2-oxo-1-(4-(1-(pyrrolidin-1-ylmethyl)cyclopropyl)phenyl)piperidin-3-yl)-3-(6-(trifluoromethyl)pyridin-3-yl)urea]
Second: CS(=O)(=O)NCC1(c2ccc(N3CCC[C@@H](NC(=O)Nc4ccc(C(F)(F)F)nc4)C3=O)cc2)CC1 [Example 33]
The EC50 of the first is higher: 100 to 1250 nM for the first, no more than 10 nM for the second.

Compared with CS(=O)(=O)NCC1(c2ccc(N3CCC[C@@H](NC(=O)Nc4ccc(OC(F)F)nc4)C3=O)cc2)CC1 [Example 38], COc1cnc(NC(=O)N[C@H]2CCCN(c3ccc(C4(CNS(C)(=O)=O)CCC4)cc3)C2=O)cn1 [Example 10] is lower in EC50: 100 to 1250 nM for the first, 10 to 100 nM for the second.

CS(=O)(=O)NCC1(c2ccc(N3CCC[C@@H](NC(=O)Nc4cnc(C#N)cn4)C3=O)cc2)CC1 [Example 37] and CS(=O)(=O)NCC1(c2ccc(N3CCC[C@@H](NC(=O)Nc4ccc(C(F)(F)F)cn4)C3=O)c(F)c2)CC1 [Example 4] fall in the same range of EC50: 10 to 100 nM for the first, 10 to 100 nM for the second.
